Source: US8853258B2, “C-linked hydroxamic acid derivatives useful as antibacterial agents” (Pfizer Inc., priority 2009, dated 2014)
In brackets after ≈: the same amount, converted by molar mass. Like-named read-outs stand apart in the source and are kept apart here.

Key:
Assay type in all cases: cell-based
[1] = system: Pseudomonas aeruginosa UI-18: Wild-type (PA-7); assay: MIC determination (CLSI), PA-7; details: for MIC: Pseudomonas aeruginosa
Protocol: (§1) The in vitro antibacterial activity of compounds described in the Examples was evaluated by minimum inhibitory concentration (MIC) testing according to Clinical and Laboratory Standards Institute (CLSI, formerly NCCLS) guidelines. See: Clinical and Laboratory Standards Institute. Methods for Dilution Antimicrobial Susceptibility Tests for Bacteria that Grow Aerobically; Approved Standard-Seventh Edition. CLSI document M7-A7 [ISBN 1-56238-587-9]. Clinical and Laboratory Standards Institute, 940 West Valley Road, Suite 1400, Wayne, Pa. 19087-1898 USA, 2006; also Clinical and Laboratory Standards Institute. Performance Standards for Antimicrobial Susceptibility Testing; Eighteenth Informational Supplement. CLSI document M100-S18 [ISBN1-56238-653-0]. Clinical and Laboratory Standards Institute.
(§2) The following bacterial strains were used in these MIC determinations:
1) Pseudomonas aeruginosa UI-18: Wild-type, labeled as PA-7 in Tables 1, 2 and 3;

[2] = system: Klebsiella pneumoniae: Ciprofloxacin-resistant isolate, ESBL, clinical isolate (KP-3700); assay: MIC determination (CLSI), KP-3700
Protocol: as §1, §2
4) Klebsiella pneumoniae: Ciprofloxacin-resistant isolate, expresses extended-spectrum beta-lactamases (ESBL), clinical isolate, labeled as KP-3700 in Tables 1, 2, and 3.

[3] = system: Escherichia coli EC-1: VOGEL, mouse virulent; assay: MIC determination (CLSI), EC-1; details: for MIC: Escherichia coli
Protocol: as §1, §2
3) Escherichia coli EC-1: VOGEL, mouse virulent labeled as EC-1 in Tables 1, 2 and 3;

[4] = system: Acinetobacter baumanii/haemolyticus: Multidrug-resistant clinical isolate (AB-3167); assay: MIC determination (CLSI), AB-3167; details: for MIC: Acinetobacter baumannii
Protocol: as §1, §2
2) Acinetobacter baumanii/haemolyticus: Multidrug-resistant clinical isolate labeled as AB-3167 in Tables 1, 2 and 3;

[5] = Pseudomonas aeruginosa UI-18 wild-type PA-7
[6] = Escherichia coli EC-1 VOGEL, mouse virulent
[7] = Acinetobacter baumanii/haemolyticus multidrug-resistant clinical isolate AB-3167
[8] = Table 1, MIC, read-out: PA-7 (MIC)
[9] = Table 1, MIC, read-out: AB-3167 (MIC)

| Structure (SMILES) | PA-7 MIC [1, 5] | KP-3700 MIC [2] | EC-1 MIC [3, 6] | AB-3167 MIC [4, 7] | other results |
| --- | --- | --- | --- | --- | --- |
| COc1ccc(-c2ccc(CCC(C)(C(=O)NO)S(C)(=O)=O)cc2)cc1 (racemic) [Example 55] | 0.5 µg/mL | 2 µg/mL | 0.5 µg/mL | 16 µg/mL |  |
| Cc1cc(C)cc(COc2ccc(CCC(C)(C(=O)NO)S(C)(=O)=O)cc2)c1 (stereo not shown) [Example 257, 4-{4-[(3,5-dimethylbenzyl)oxy]phenyl}-N-hydroxy-2-methyl-2-(methylsulfonyl)butanamide] |  | 32 µg/mL |  |  | MIC ([1]; Table 3, read-out: PA-7 MIC): 32 µg/mL (≈ 78.9 µM); MIC ([3]; read-out: EC-1 MIC): 4 µg/mL (≈ 9.86 µM); MIC ([4]; Table 3, read-out: AB-3167 MIC): ≥ 64 µg/mL |
| CC(CCc1ccc(-c2cccc(CO)c2)cc1)(C(=O)NO)S(C)(=O)=O (racemic) [Example 84] | 16 µg/mL | ≧64 mg/L | ≧64 mg/L | ≧64 mg/L |  |
| CCc1ccccc1-c1ccc(CCC(C)(C(=O)NO)S(C)(=O)=O)cc1 (racemic) [Example 69] | 16 µg/mL | ≧64 mg/L | 16 µg/mL | ≧64 mg/L |  |
| CC(CCc1ccc(-c2ccc(F)cc2)cn1)(C(=O)NO)S(C)(=O)=O (stereo not shown) [Example 164] | 4 µg/mL | 32 µg/mL | 32 µg/mL | ≧64 mg/L |  |
| Cc1cc(O)ccc1-c1ccc(CCC(C)(C(=O)NO)S(C)(=O)=O)cc1 (stereo not shown) [Example 140] | 4 µg/mL | ≧64 mg/L | 32 µg/mL | ≧64 mg/L |  |
| CC(C)(O)c1ccccc1-c1ccc(CCC(C)(C(=O)NO)S(C)(=O)=O)cc1 (stereo not shown) [Example 153] | 32 µg/mL | ≧64 mg/L | ≧64 mg/L | ≧64 mg/L |  |
| Cc1cc(-c2ccc(CCC(C)(C(=O)NO)S(C)(=O)=O)cc2)cnc1N(C)C (stereo not shown) [Example 37] | 16 µg/mL | ≧64 mg/L | 16 µg/mL | ≧64 mg/L |  |
| COc1cccc(F)c1-c1ccc(CCC(C)(C(=O)NO)S(C)(=O)=O)cc1 (stereo not shown) [Example 41] | 8 µg/mL | ≧64 mg/L | 16 µg/mL | ≧64 mg/L |  |
| COc1cc(-c2ccc(CCC(C)(C(=O)NO)S(C)(=O)=O)cc2)ccc1O (stereo not shown) [Example 139] | 16 µg/mL | ≧64 mg/L | 16 µg/mL | ≧64 mg/L |  |
| CC(CCc1ccc(-c2cc(Cl)ccc2F)cc1)(C(=O)NO)S(C)(=O)=O (racemic) [Example 90] | 8 µg/mL | 8 µg/mL | 8 µg/mL | 8 µg/mL |  |
| CC(CCc1ccc(-c2ccc(OCCO)c(C#N)c2)cc1)(C(=O)NO)S(C)(=O)=O (stereo not shown) [Example 148] | 16 µg/mL | ≧64 mg/L | 16 µg/mL | ≧64 mg/L |  |
| COc1ccc(OC)c(-c2ccc(CCC(C)(C(=O)NO)S(C)(=O)=O)cc2)c1 (stereo not shown) [Example 48] | ≧64 mg/L | ≧64 mg/L | 16 µg/mL | 16 µg/mL |  |
| CC(CCc1ccc(OCCCC2CCCC2)cc1)(C(=O)NO)S(C)(=O)=O (stereo not shown) [Example 313, 4-[4-(3-cyclopentylpropoxy)phenyl]-N-hydroxy-2-methyl-2-(methylsulfonyl)butanamide] |  | 16 µg/mL |  |  | MIC ([1]; Table 3, read-out: PA-7 MIC): 16 µg/mL (≈ 40.2 µM); MIC ([3]; read-out: EC-1 MIC): 4 µg/mL (≈ 10.1 µM); MIC ([4]; Table 3, read-out: AB-3167 MIC): 2 µg/mL (≈ 5.03 µM) |
| COc1cccc(-c2ccc(CCC(C)(C(=O)NO)S(C)(=O)=O)cc2)c1F (racemic) [Example 89] | 0.5 µg/mL | 1 µg/mL | 0.5 µg/mL | 16 µg/mL |  |
| CC(CCc1ccc(-c2ccc(C#N)cc2)nc1)(C(=O)NO)S(C)(=O)=O (stereo not shown) [Example 122] | 8 µg/mL | ≧64 mg/L | 16 µg/mL | ≧64 mg/L |  |
| CS(=O)(=O)C(CCc1ccc(-c2ccc(F)cc2)cc1)C(=O)NO (stereo not shown) [Example 24, 4-(4′-Fluorobiphenyl-4-yl)-N-hydroxy-2-(methylsulfonyl)butanamide] |  | 32 µg/mL |  |  | MIC [1, 8]: 1 µg/mL (≈ 2.85 µM); MIC ([3]; read-out: EC-1: (MIC)): 32 µg/mL (≈ 91.1 µM); MIC [4, 9]: 32 µg/mL (≈ 91.1 µM) |

| Structure (SMILES) | PA-7 MIC [1, 5] | KP-3700 MIC [2] | EC-1 MIC [3, 6] | AB-3167 MIC [4, 7] | other results |
| --- | --- | --- | --- | --- | --- |
| COc1ccc(-c2ccc(CCC(C)(C(=O)NO)S(C)(=O)=O)cc2)c(C)n1 (racemic) [Example 86] | 4 µg/mL | 32 µg/mL | 8 µg/mL | ≧64 mg/L |  |
| CC(C)(O)c1ccc(-c2ccc(CCC(C)(C(=O)NO)S(C)(=O)=O)cc2)cc1 (stereo not shown) [Example 230] |  | 32 µg/mL |  |  | PA-7 MIC ([1]; Pseudomonas aeruginosa UI-18 (PA-7)): 8 µg/mL; EC-1 MIC ([3]; Escherichia coli EC-1): 8 µg/mL; AB-3167 MIC ([4]; Acinetobacter baumanii/haemolyticus AB-3167): ≧64 mg/L |
| CC(CCc1ccc(OCc2ccc3ccccc3n2)cc1)(C(=O)NO)S(C)(=O)=O (stereo not shown) [Example 279, N-hydroxy-2-methyl-2-(methylsulfonyl)-4-[4-(quinolin-2-ylmethoxy)phenyl]butanamide] |  | ≧64 mg/L |  |  | MIC ([1]; Table 3, read-out: PA-7 MIC): ≥ 64 µg/mL; MIC ([3]; read-out: EC-1 MIC): 16 µg/mL (≈ 37.3 µM); MIC ([4]; Table 3, read-out: AB-3167 MIC): ≥ 64 µg/mL |
| CC(CCc1ccc(-c2cnc(N3CCOCC3)nc2)cc1)(C(=O)NO)S(C)(=O)=O (stereo not shown) [Example 39] | ≧64 mg/L | 32 µg/mL | 4 µg/mL | ≧64 mg/L |  |
| CC(CCc1ccc(-c2ccc3c(c2)CCO3)cc1)(C(=O)NO)S(C)(=O)=O (racemic) [Example 74] | 1 µg/mL | 4 µg/mL | 1 µg/mL | 16 µg/mL |  |
| CS(=O)(=O)C(CCc1ccc(-c2ccccc2)cc1)C(=O)NO (stereo not shown) [Example 36] | 2 µg/mL | 16 µg/mL | 16 µg/mL | 32 µg/mL |  |
| CC(CCc1ccc(OCCCc2ccccc2)cc1)(C(=O)NO)S(C)(=O)=O (stereo not shown) [Example 264, N-hydroxy-2-methyl-2-(methylsulfonyl)-4-[4-(3-phenylpropoxy)phenyl]butanamide] |  | 16 µg/mL |  |  | MIC ([1]; Table 3, read-out: PA-7 MIC): 32 µg/mL (≈ 78.9 µM); MIC ([3]; read-out: EC-1 MIC): 4 µg/mL (≈ 9.86 µM); MIC ([4]; Table 3, read-out: AB-3167 MIC): 8 µg/mL (≈ 19.7 µM) |
| CC(CCc1ccc(-c2ccc(S(C)(=O)=O)cc2)cc1)(C(=O)NO)S(C)(=O)=O (racemic) [Example 79] | 4 µg/mL | ≧64 mg/L | 32 µg/mL | ≧64 mg/L |  |
| CC(CCc1ccc(-c2ccc(OCCO)c(F)c2)cc1)(C(=O)NO)S(C)(=O)=O (stereo not shown) [Example 145] | 1 µg/mL | 4 µg/mL | 2 µg/mL | ≧64 mg/L |  |
| CC(C)Oc1ccc(CCC(C)(C(=O)NO)S(C)(=O)=O)cc1 (stereo not shown) [Example 234, N-hydroxy-4-(4-isopropoxyphenyl)-2-methyl-2-(methylsulfonyl)butanamide] |  | ≧64 mg/L |  |  | MIC ([1]; Table 3, read-out: PA-7 MIC): 8 µg/mL (≈ 24.3 µM); MIC ([3]; read-out: EC-1 MIC): ≥ 64 µg/mL; MIC ([4]; Table 3, read-out: AB-3167 MIC): ≥ 64 µg/mL |
| COc1ccccc1-c1ccc(CCC(C)(C(=O)NO)S(C)(=O)=O)cc1 (stereo not shown) [Example 100] | 8 µg/mL | ≧64 mg/L | 32 µg/mL | ≧64 mg/L |  |
| CC(C)c1cccc(-c2ccc(CCC(C)(C(=O)NO)S(C)(=O)=O)cc2)c1 (stereo not shown) [Example 43] | 8 µg/mL | 16 µg/mL | 4 µg/mL | 4 µg/mL |  |
| CC(CCc1ccc(OCc2c(F)cccc2Cl)cc1)(C(=O)NO)S(C)(=O)=O (stereo not shown) [Example 276, 4-{4-[(2-chloro-6-fluorobenzyl)oxy]phenyl}-N-hydroxy-2-methyl-2-(methylsulfonyl)butanamide] |  | 16 µg/mL |  |  | MIC ([1]; Table 3, read-out: PA-7 MIC): 4 µg/mL (≈ 9.3 µM); MIC ([3]; read-out: EC-1 MIC): 4 µg/mL (≈ 9.3 µM); MIC ([4]; Table 3, read-out: AB-3167 MIC): 32 µg/mL (≈ 74.4 µM) |
| CC(CCc1ccc(-c2ccc(OCCCN)cc2)cc1)(C(=O)NO)S(C)(=O)=O (stereo not shown) [Example 117] | 8 µg/mL | ≧64 mg/L | ≧64 mg/L | ≧64 mg/L |  |
| Cc1cc(-c2ccc(CCC(C)(C(=O)NO)S(C)(=O)=O)cc2)ccc1CCO (stereo not shown) [Example 152] | 2 µg/mL | 16 µg/mL | 4 µg/mL | ≧64 mg/L |  |
| COc1ccc(-c2ccc(CCC(C)(C(=O)NO)S(C)(=O)=O)cc2)cc1F (racemic) [Example 66] | 1 µg/mL | 8 µg/mL | 1 µg/mL | 16 µg/mL |  |
| CC(CCc1ccc(-n2cccn2)cc1)(C(=O)NO)S(C)(=O)=O (stereo not shown) [Example 11, N-Hydroxy-2-methyl-2-(methylsulfonyl)-4-[4-(1H-pyrazol-1-yl)phenyl]butanamide] |  | ≧64 mg/L |  |  | MIC [1, 8]: 16 µg/mL (≈ 47.4 µM); MIC ([3]; read-out: EC-1: (MIC)): ≥ 64 µg/mL; MIC [4, 9]: ≥ 64 µg/mL |
